The record followed here is patent US7781428B2 (Pfizer Inc., priority 2006, dated 2010).

Each structure is given as a SMILES string.

This assay addresses T1, mineralocorticoid receptor (MR) (Homo sapiens, UniProt P08235).
T1 construct: expressed in transfected cells; host or cells: Huh7 (human liver cells)
T1 sequence (P08235 726-964 limits assumed): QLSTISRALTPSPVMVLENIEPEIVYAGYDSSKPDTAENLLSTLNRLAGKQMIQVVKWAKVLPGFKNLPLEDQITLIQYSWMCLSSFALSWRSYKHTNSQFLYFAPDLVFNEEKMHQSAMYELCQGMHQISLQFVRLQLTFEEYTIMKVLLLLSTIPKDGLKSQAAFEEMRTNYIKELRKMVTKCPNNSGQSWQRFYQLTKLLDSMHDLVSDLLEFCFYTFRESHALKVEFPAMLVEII
Briefly: Cell-based Gal4 response element-controlled luciferase reporter assay (MR antagonism). To be noted: Huh7 human liver cells transfected with Gal4 DBD-MR LBD fusion and luciferase reporter; block of agonist-induced activation; overnight incubation. The source says: Method 1: Cell-based Gal4 Response Element-controlled Luciferase Reporter Assay
An in vitro assay can be used to evaluate mineralocorticoid receptor (MR) antagonism by a test compound. […] An agonist of the receptor can bind to and activate the receptor LBD, which activate the expression of the Gal4 response element containing luciferase reporter gene. Antagonists can compete for binding to the receptor LBDs and decrease the transcription activity of the reporter gene. Measurement of luciferase activity allows quantitative determinations of the reporter transcription in the presence of either agonists or agonists and antagonists in combination. β-galactosidase activity, which is unaffected by ligand, is used to normalize the transfection efficiency in the cell population.
Huh7 cells were plated in RPMI1640+10% fetal bovine serum (Invitrogen Corporation, San Diego, Calif.), at 10,000 cells per well in 96-well tissue culture dishes for approximately 24 hours. Cells were then transfected using FuGENE™ 6 Transfection Reagent according to manufacturers' instructions (Roche Molecular Biochemicals, Indianapolis, Ind.). Approximately 20 hours after transfection, media were removed. Cells were washed once with PBS and treated (n=6/group) with agonist for each receptor (all chemicals from Sigma, St. Louis, Mo.), and with compounds. Agonist concentrations represent 70-80% of full activation of each receptor.
Compounds were dissolved in DMSO at 10 mM and diluted to final concentrations in phenol red-free media that contained 10% charcoal- and dextran-stripped serum (Life Technologies, Gathersburg, Md.). Following overnight incubation (18-20 hours) with compounds, the medium was removed and replaced with 100 μL per well of PBS and 100 μL of Steady-Glo™ lysis buffer with luciferase substrate (Promega Corporation, Madison, Wis.). After a 30-minute incubation to completely lyse the cells, 100 μL of the lysate was transferred to a black, Dynatech Microfluor assay plates (Dynex Corporation, Chantilly, Va.) to measure luciferase activity. The plate was sealed with TopSeal self-adhesive film, dark-adapted for 5 minutes, then counted in a TopCount Plate Reader (Packard Instrument Company, Meriden, Conn.) in single photon counting mode. The remaining lysate was used for determination of β-galactosidase activity. In a clear 96-well assay plate, 100 μL of cell lysate was added to 100 μL β-galactosidase assay buffer per well. The assay buffer consisted of 60 mM Na2HPO4, 40 mM NaH2PO4, 10 mM KCl, 1 mM MgSO4, 50 mM β-mercaptoethanol, and 2.5 mg/mL ONPG, the latter two reagents were added just prior to assay (all chemicals from Sigma). The reaction was allowed to proceed until a distinct yellow color developed. Reactions were stopped by the addition of 100 μL per well 1 M Na2CO3 and plates were read at 420 nm in Victor-2 (Perkin Elmer Life Sciences, Boston, Mass.). Values (relative luciferase activity) for each sample were expressed as a ratio of luciferase activity to OD420β-galactosidase activity measured in arbitrary units for each well. […] “b” is the slope, “c” is the IC50 or EC50. “x” is the concentration of the compound and “y” the activity at that concentration.

With `N#Cc1ccc(N2N=C3c4ccc(C(=O)O)cc4CC[C@@H]3[C@@H]2c2ccc(F)cc2)cc1` [Example 11, (3R,3aR)-2-(4-cyanophenyl)-3-(4-fluorophenyl)-3,3a,4,5-tetrahydro-2H-benzo[g]indazole-7-carboxylic acid], the IC50 (as a rule, the point on the concentration scale where inhibition reaches its midpoint) turned out to be 205 nM.

For the compound `Cc1cc(N2N=C3c4ccc(C(=O)O)cc4CC[C@H]3[C@H]2C2CCCC2)ccc1C#N` (single isomer, unassigned) [Example 23], the IC50 was over 500 nM.

Take `N#Cc1ccc(N2N=C3c4ccc(O)cc4CCC3C2c2ccc(F)cc2)cc1` (racemic) [Example 89, (±)-4-((3RS,3aRS)-3-(4-fluorophenyl)-7-hydroxy-3,3a,4,5-tetrahydrobenzo[g]indazol-2-yl)benzonitrile]: the IC50 was found to be 705 nM.

Turning to `N#Cc1ccc(N2N=C3c4ccc(C(=O)O)cc4CCC3C2C2CCOCC2)cc1Cl` (racemic) [Example 36, 2-(3-chloro-4-cyanophenyl)-3-(tetrahydro-2H-pyran-4-yl)-3,3a,4,5-tetrahydro-2H-benzo[g]indazole-7-carboxylic acid], the IC50 was 127 nM.

For the compound `N#Cc1ccc(N2N=C3c4ccc(C(=O)O)cc4OCC3C2C2CCCC2)cc1Cl` (racemic) [Example 64, 2-(3-chloro-4-cyanophenyl)-3-cyclopentyl-2,3,3a,4-tetrahydrochromeno[4,3-c]pyrazole-7-carboxylic acid], the IC50 turned out to be 65 nM.

As to `Cc1cc(N2N=C3c4ccc(C(=O)O)cc4CCC3C2c2ccc(F)cc2)ccc1C#N` (racemic) [Example 6, 2-(4-cyano-3-methylphenyl)-3-(4-fluorophenyl)-3,3a,4,5-tetrahydro-2H-benzo[g]indazole-7-carboxylic acid], the IC50 is 81 nM.

Regarding `CS(=O)(=O)CCNC(=O)c1ccc2c(c1)CC[C@H]1C2=NN(c2ccc(C#N)c(Cl)c2)[C@H]1C1CCOCC1` (racemic) [Example 100], the IC50 is 21 nM.

Turning to `N#Cc1ccc(N2N=C3c4ccc(C(=O)NCCN5CCCC5)cc4CC[C@@H]3[C@@H]2c2ccc(F)cc2)cc1Cl` (racemic) [Example 111, (±)-(3RS,3aRS)-2-(3-chloro-4-cyanophenyl)-3-(4-fluorophenyl)-N-(2-(pyrrolidin-1-yl)ethyl)-3,3a,4,5-tetrahydro-2H-benzo[g] indazole-7-carboxamide], the IC50 turned out to be 57 nM.

As for `N#Cc1ccc(N2N=C3c4ccc(C(=O)O)cc4OC[C@@H]3[C@@H]2C2CCCC2)cc1Cl` [Example 65, (3S,3aR)-2-(3-chloro-4-cyanophenyl)-3-cyclopentyl-2,3,3a,4-tetrahydrochromeno[4,3-c]pyrazole-7-carboxylic acid], the IC50 is 38 nM.

Take `N#Cc1ccc(N2N=C3c4ccc(C(=O)O)cc4OC[C@@H]3[C@@H]2c2ccc(F)cc2)cc1` [Example 59, (3R,3aR)-2-(4-cyanophenyl)-3-(4-fluorophenyl)-2,3,3a,4-tetrahydrochromeno[4,3-c]pyrazole-7-carboxylic acid]: the IC50 is over 1000 nM.

Consider `N#Cc1ccc(N2N=C3c4ccc(O)cc4CC[C@H]3[C@H]2c2ccc(F)cc2)cc1C(F)(F)F` [Example 85, 4-((3S,3aS)-3-(4-fluorophenyl)-7-hydroxy-3,3a,4,5-tetrahydrobenzo[g]indazol-2-yl)-2-(trifluoromethyl)benzonitrile], for which the IC50 was over 1000 nM.

For `CC(C)C1C2COc3cc(C(=O)O)ccc3C2=NN1c1ccc(C#N)c(Cl)c1` (racemic) [Example 74, 2-(3-chloro-4-cyanophenyl)-3-isopropyl-2,3,3a,4-tetrahydrochromeno[4,3-c]pyrazole-7-carboxylic acid], the IC50 was found to be 588 nM.

For the compound `N#Cc1ccc(N2N=C3c4ccc(C(=O)NCCCC(=O)O)cc4CC[C@@H]3[C@@H]2c2ccc(F)cc2)cc1Cl` (racemic) [Example 106, (±)-4-((3RS,3aRS)-2-(3-chloro-4-cyanophenyl)-3-(4-fluorophenyl)-3,3a,4,5-tetrahydro-2H-benzo[g]indazole-7-carboxamido)butanoic acid], the IC50 came to 312 nM.

For the compound `CCN(CC)CCN(CCN(CC)CC)C(=O)c1ccc2c(c1)CC[C@H]1C2=NN(c2ccc(C#N)c(Cl)c2)[C@H]1c1ccc(F)cc1` (racemic) [Example 107, (±)-(3RS,3aRS)-2-(3-chloro-4-cyanophenyl)-N,N-bis(2-(diethylamino)ethyl)-3-(4-fluorophenyl)-3,3a,4,5-tetrahydro-2H-benzo[g]indazole-7-carboxamide bistrifluoroacetate], the IC50 turned out to be 523 nM.

For the compound `N#Cc1ccc(N2N=C3c4ccc(C(=O)O)cc4OCC3C2C2CCCC2)cc1Cl` (racemic) [Example 67, 2-(3-chloro-4-cyanophenyl)-3-cyclopentyl-2,3,3a,4-tetrahydrochromeno[4,3-c]pyrazole-7-carboxylic acid], the IC50 is 146 nM.

Regarding `N#Cc1ccc(N2N=C3c4ccc(O)cc4CC[C@@H]3[C@@H]2c2ccc(F)cc2)cc1Cl` [Example 87, 2-chloro-4-((3R,3aR)-3-(4-fluorophenyl)-7-hydroxy-3,3a,4,5-tetrahydrobenzo[g]indazol-2-yl)benzonitrile], the IC50 came to 36 nM.

For `N#Cc1ccc(N2N=C3c4cc(C(=O)NCCN5CCCC5)ccc4CC[C@@H]3[C@@H]2c2ccc(F)cc2)cc1Cl` (racemic) [Example 112, (±)-(3RS13aRS)-2-(3-chloro-4-cyanophenyl)-3-(4-fluorophenyl)-N-(2-(pyrrolidin-1-yl)ethyl)-3,3a,4,5-tetrahydro-2H-benzo[g]indazole-8-carboxamide], the IC50 is 1550 nM.

For the compound `Cc1ncc(C2C3CCc4cc(C(=O)NCCS(C)(=O)=O)ccc4C3=NN2c2ccc(C#N)c(Cl)c2)s1` (stereo not drawn) [Example 118, 2-(3-chloro-4-cyanophenyl)-N-[2-(methylsulfonyl)ethyl]-3-(2-methyl-1,3-thiazol-5-yl)-3,3a,4,5-tetrahydro-2H-benzo[g]indazole-7-carboxamide], the IC50 was 19 nM.

In the case of `N#Cc1ccc(N2N=C3c4ccc(C(=O)O)cc4OCC3C2C2=CCCC2)cc1Cl` (racemic) [Example 78, (±)-(3RS,3aRS)-2-(3-chloro-4-cyanophenyl)-3-cyclopentenyl-2,3,3a,4-tetrahydrochromeno[4,3-c]pyrazole-7-carboxylic acid], the IC50 amounted to 70 nM.

Take `N#Cc1ccc(N2N=C3c4ccc(C(=O)O)cc4CCC3C2C2=CCCC2)cc1` (racemic) [Example 50, 2-(4-cyanophenyl)-3-cyclopent-1-en-1-yl-3,3a,4,5-tetrahydro-2H-benzo[g]indazole-7-carboxylic acid]: the IC50 worked out at 205 nM.

As to `N#Cc1ccc(N2N=C3c4ccc(C(=O)O)cc4CC[C@H]3[C@H]2c2ccoc2)cc1Cl` [Example 48, (3S,3aS)-2-(3-chloro-4-cyanophenyl)-3-(3-furyl)-3,3a,4,5-tetrahydro-2H-benzo[g]indazole-7-carboxylic acid], the IC50 is over 1000 nM.

Take `Cc1nc(N2N=C3c4ccc(C(=O)O)cc4CCC3C2C2CCCC2)ccc1C#N` (racemic) [Example 24, 2-(5-cyano-6-methylpyridin-2-yl)-3-cyclopentyl-3,3a,4,5-tetrahydro-2H-benzo[g]indazole-7-carboxylic acid]: the IC50 is 8 nM.

For the compound `N#Cc1ccc(N2N=C3c4ccc(C(=O)O)cc4OCC3C2c2ccc(F)cc2)cc1Cl` (racemic) [Example 55, 2-(3-chloro-4-cyanophenyl)-3-(4-fluorophenyl)-2,3,3a,4-tetrahydrochromeno[4,3-c]pyrazole-7-carboxylic acid], the IC50 amounted to 849 nM.

`N#Cc1ccc(N2N=C3c4ccc(C(=O)O)cc4CCC3C2c2ccoc2)cc1Cl` (racemic) [Example 46, 2-(3-chloro-4-cyanophenyl)-3-(3-furyl)-3,3a,4,5-tetrahydro-2H-benzo[g]indazole-7-carboxylic acid]: the IC50 was found to be 69 nM.
